Assay results published in patent US7951551B2, “Kits and reagents for luciferase detection assay system” (PerkinElmer Life and Analytical Sciences B.V., priority 2005, dated 2011).
Like-named read-outs stand apart in the source and are kept apart here.

How the values were obtained:
luciferase [1] = target: T1, luciferase (Photinus pyralis, UniProt P08659); assay: Light yield of the luciferin-luciferase reaction (luciferase detection, TopCount luminescence, 0-420 min); assay type: biochemical, firefly; settings: for final concentration up to which light yield increases: with 0.25 M phosphate
Excerpt: A stock solution of 4.0 M Tris (source of ammonium ions) was neutralized with phosphoric acid (H3PO4) until a pH of 7.0 was reached. This stock buffer solution contained 2.0 M of phosphate. The stock solution was used to make a range of assay reagents comprising, respectively, 2.2, 1.1, 0.55, 0.275, 0.138, 0.069, 0.034 and 0.017 M Tris. The phosphate concentration in these assay reagents was […] phosphate, respectively.
Each reagent was checked for its pH to be 7.0 and was adjusted with small amounts of H3PO4 (several μl of a 2 M H3PO4 solution) if needed. The phosphate anions added in this manner had no significant effect on the above reported phosphate concentration. Each assay reagent was supplemented with D-luciferin, ATP and sodium-thiosulfate (Na2S2O3) by the addition of 250 μl of a freshly prepared stock solution (30 mM ATP, 3 mM D-luciferin, 100 mM thiosulfate adjusted to pH=7.0 with 1 M NaOH) to 2250 μl of assay reagent.
Luciferase was lyophilized in Dulbecco's-PBS with Mg and Ca (D'PBS^++) containing 0.05 g/ml trehalose and 0.016 g/ml BSA). Luciferase samples were prepared by reconstituting lyophilized luciferase in 200 μl water. The resulting solution was then diluted 100-fold by adding 150 μl of the reconstituted luciferase to 15 ml PBS (8.1 mM NaH2PO4, 1.5 mM KH2PO4, 2.7 mM KCl and 137 mM NaCl) containing 5 mM MgCl2, 5 mM CaCl2, 5 mM EDTA, 0.4% Thesit (a non-ionic detergent) and 0.1% bovine serum albumin (BSA). This yielded the “luciferase sample” solution which contained 27 ng/ml of luciferase.
The microplate was shaken for 10 seconds at 1100 rpm on a microplate-shaker and then immediately placed in a TopCount®-NXT Microplate Scintillation and Luminescence Counter. The resulting luminescent light signal was measured immediately after loading the microplate into the counter. The measurement was repeated after 5 and 10 minutes.
Final Tris concentrations in the different reaction mixtures were: 1.0, 0.5, 0.25, 0.125, 0.063, 0.031, 0.016 and 0.008 M. The phosphate concentrations were 0.5, 0.25, 0.125, 0.063, 0.031, 0.016, 0.008 and 0.004 M phosphate ions respectively. Final Mg^2+, D-luciferin, ATP, thiosulfate and luciferase concentrations in the reaction mixtures were 2.5 mM, 150 μM, 1.5 mM, 5 mM and 14 pg/μl, respectively.
FIG. 1 illustrates the effect of increasing Tris-phosphate concentrations in the luciferin-luciferase reaction mixture on the initial height and the decay of the light signal. To compare the total light yield (expressed as 10^9 counts) of each reaction mixture the areas under the curves were calculated by integrating the equations of the curves between 0 and 420 minutes. These equations of the curves were obtained using the option ‘trend line with equation’ of Microsoft Excel® software.
Stock solutions of 4.0 M ethanolamine (H2NCH2CH2OH) and 3.0 M ammonium-phosphate ((NH4)2HPO4) were neutralized with phosphoric acid (H3PO4) until pH 7.0 was reached. Dilutions were made in the same manner as described in example 1. Furthermore, all methods and other chemicals used to create the assay mixture and to test this for its light yield in a luciferin-luciferase reaction, were standardized and thus the same as in example 1. Final ethanolamine concentrations in the assay were 1.0, 0.5, 0.25, 0.125, 0.063, 0.031, 0.016 and 0.008 M, and 0.5, 0.25, 0.125, 0.063, 0.031, 0.016, 0.008 and 0.004 M phosphate, respectively. According to the present invention, a final concentration of 1M ethanolamine is assumed to provide the aqueous, neutral reaction mixture with 1M of ammonium ions. Thus, the concentration of ammonium ions in the reaction mixture is regarded to be identical to that of the source of ammonium ions. […]
Quantification of the reaction kinetics through surface area calculation under the curves is shown in Table 4 (ethanolamine-phosphate dilutions) and Table 5 (for ammonium-phosphate dilutions). […]
Target sequence in this assay (P08659 whole entry): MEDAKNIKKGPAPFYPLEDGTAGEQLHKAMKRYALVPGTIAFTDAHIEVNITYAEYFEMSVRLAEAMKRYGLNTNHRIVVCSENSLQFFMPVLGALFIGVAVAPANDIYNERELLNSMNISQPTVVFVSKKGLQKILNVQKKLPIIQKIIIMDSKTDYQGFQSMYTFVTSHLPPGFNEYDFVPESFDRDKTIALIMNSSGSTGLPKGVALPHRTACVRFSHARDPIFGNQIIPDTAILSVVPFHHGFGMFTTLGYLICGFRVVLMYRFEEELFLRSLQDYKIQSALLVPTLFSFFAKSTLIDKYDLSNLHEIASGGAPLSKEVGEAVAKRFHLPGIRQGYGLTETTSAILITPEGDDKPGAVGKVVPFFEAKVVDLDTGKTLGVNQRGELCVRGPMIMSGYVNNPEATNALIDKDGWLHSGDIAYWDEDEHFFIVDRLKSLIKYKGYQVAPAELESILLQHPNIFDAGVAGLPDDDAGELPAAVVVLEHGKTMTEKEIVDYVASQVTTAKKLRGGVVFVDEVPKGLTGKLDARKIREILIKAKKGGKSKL

[2] = target: Photinus pyralis luciferase (Photinus pyralis, UniProt P08659); settings: compared to freshly prepared luciferase solution; 10% without DTT; cited from earlier work
Sequence of Photinus pyralis luciferase (P08659 whole entry): as above

[3] = cited from earlier work; for pKa (D/° C.): temperature coefficient of pKa, in brackets
luciferase [4] = target: T1, luciferase; settings: CoA in the assay reagent (U.S. Pat. No. 5,283,179); cited from earlier work
Target sequence in this assay (P08659 whole entry): as above

luciferase [5] = target: T1, luciferase; assay: Light yield of the luciferin-luciferase reaction (luciferase detection, TopCount luminescence, 0-420 min); assay type: biochemical, firefly; settings: 0.5 mM reducing agent, 0.5 M Tris and 0.25 M phosphate
Target sequence in this assay (P08659 whole entry): as above

[6] = cited from earlier work
luciferase [7] = target: T1, luciferase; set-up: host or cells: eukaryotic cells (unspecified); settings: 1% detergent, chemical lysis of eukaryotic cells; cited from earlier work
Target sequence in this assay (P08659 whole entry, species assumed): as the sequence (P08659 whole entry) above

luciferase [8] = target: T1, luciferase; settings: ATP assay, higher Tris-phosphate ion concentrations, integral 1-420 minutes
Target sequence in this assay (P08659 whole entry): as above
Procedure: (§1) For this experiment 16 different reagent mixtures were prepared; 8 mixtures (for the ATP assay) contained a large amount of luciferase, a small amount of ATP and increasing Tris-phosphate concentrations and 8 mixtures (for the luciferase assay) contained a large amount of ATP, a small amount of luciferase and increasing amounts of Tris-phosphate. To reduce variances that might be introduced by small concentrations differences between the reagents, all reagents were made from the same stock solutions where possible.
An “ATP sample” was prepared by diluting a reconstituted lyophilized ATP standard (PerkinElmer Inc.) in D'PBS^++ resulting in a 1.0×10^−8 mM ATP solution.
(§2) Likewise, in the same microplate the reaction kinetics when assaying for luciferase were measured by pipetting 100 μl of each Tris-phosphate concentration reagent with ATP, and adding 100 μl of “luciferase sample”.
(§3) The microplate was shaken for 10 seconds on a microplate-shaker and sealed with TopSeal-A™ (PerkinElmer Inc.). […] The luminescent light signal was immediately measured, meaning about 1 minute after mixing reagent and sample, and after 5 and 10 minutes. Hereafter the signal was measured repeatedly with 15 minute intervals to a total time of 420 minutes. […] The emitted light was quantified as counts per second (cps), count time 3 seconds per well.

luciferase [9] = target: T1, luciferase; settings: luciferase assay, up to 100 mM Tris-phosphate, integral 1-420 minutes
Target sequence in this assay (P08659 whole entry): as above
Procedure: as §1
A “luciferase sample” was prepared by reconstituting a lyophilized luciferase control sample (PerkinElmer Inc.) in H2O and diluting this in Dulbecco's PBS with Ca/Mg (D'PBS^++) to a 1.0×10^−7 g/l luciferase solution.
as §2, §3

[10] = 5 mM reducing agent, 0.5 M Tris and 0.25 M phosphate

For `O[C@H](CS)[C@H](O)CS` (racemic) [DTT, dithiothreitol], the “Light Yield” value (luciferase [1]; [10]) is given as 167.5 10^9counts and the “luciferase activity maintained in aged luciferase solution” value [2] is given as 50%.

In the case of `NC(=O)CNCCS(=O)(=O)O` [ACES, N-(2-acetamido)-2-aminoethanesufonic acid], the “pKa at 20° C.” value [3] is given as 6.88 and the “pKa (D/° C.)” value [3] is given as −0.020 D/° C.

In the case of `NC(=O)CN(CC(=O)O)CC(=O)O` [ADA, N-(2-acetamido)iminodiacetic acid], the “pKa (D/° C.)” value [3] is given as −0.011 D/° C.

In the case of `N.N.N.O=P(O)(O)O` [Ammonium, ammonium-phosphate], the “Light Yield” value (luciferase [1]; 0.016 M ammonium, […] phosphate, pH 7.0, 28 mM MOPS) is reported as 31.8 10^9counts, the “Light Yield” value (luciferase [1]; 0.031 M ammonium, 0.021 M phosphate, pH 7.0, 28 mM MOPS) is reported as 43.7 10^9counts and the “Light Yield” value (luciferase [1]; 0.063 M ammonium, 0.043 M phosphate, pH 7.0, 28 mM MOPS) is reported as 69.3 10^9counts. For the same molecule, the “Light Yield” value (luciferase [1]; 0.125 M ammonium, 0.088 M phosphate, pH 7.0, 28 mM MOPS) was 83.2 10^9counts, the “Light Yield” value (luciferase [1]; 0.25 M ammonium, 0.175 M phosphate, pH 7.0, 28 mM MOPS) was 88.9 10^9counts and the “Light Yield” value (luciferase [1]; 0.5 M ammonium, 0.35 M phosphate, pH 7.0, 28 mM MOPS) was 113.1 10^9counts. The “Light Yield” value (luciferase [1]; 1.0 M ammonium, 0.7 M phosphate, pH 7.0, 28 mM MOPS) was 80.7 10^9counts, the “Light Yield” value (luciferase [1]; 2.0 M ammonium, 1.4 M phosphate, pH 7.0, 28 mM MOPS) was 44.6 10^9counts and the “concentration up to which light yield increases” value (luciferase [1]; with 350 mM of phosphate) was 500 mM.

For `O=S(=O)(O)CCN(CCO)CCO` [BES, N,N-bis(2-hydroxyethyl)-2-aminoethanesulfonic acid], the “pKa (D/° C.)” value [3] is listed as “(−0.016) D/° C”.

In the case of `O=C(O)CN(CCO)CCO` [Bicine, N,N-bis(2-hydroxyethyl)glycine], the “pKa (D/° C.)” value [3] is given as “(−0.018) D/° C”.

For `O=S(=O)(O)CCCNC1CCCCC1` [CAPS, 3-(cyclohexylamino)-1-propanesulfonic acid], the “pKa (D/° C.)” value [3] is listed as “(0.032) D/° C”.

For `O=S(=O)(O)CCNC1CCCCC1` [CHES, 2-(cyclohexylamino)-1-ethanesulfonic acid], the “pKa at 20° C.” value [3] is listed as 9.55 and the “pKa (D/° C.)” value [3] is listed as “(−0.011) D/° C”.

For `CC(C)(COP(=O)(O)OP(=O)(O)OC[C@H]1O[C@@H](n2cnc3c(N)ncnc32)[C@H](O)[C@@H]1OP(=O)(O)O)[C@@H](O)C(=O)NCCC(=O)NCCS` [CoA, coenzyme A], the “time for which increased light output is maintained” value (luciferase [4]) is listed as “at least 60 seconds”.

In the case of `NCCO` [Ethanolamine, ethanolamine], the “Light Yield” value (luciferase [1]; 0.008 M ethanolamine, 0.004 M phosphate, pH 7.0) is reported as 41.6 10^9counts, the “Light Yield” value (luciferase [1]; 0.016 M ethanolamine, 0.008 M phosphate, pH 7.0) is reported as 49.6 10^9counts and the “Light Yield” value (luciferase [1]; 0.031 M ethanolamine, 0.016 M phosphate, pH 7.0) is reported as 59.2 10^9counts. The “Light Yield” value (luciferase [1]; 0.063 M ethanolamine, 0.031 M phosphate, pH 7.0) was 70.0 10^9counts, the “Light Yield” value (luciferase [1]; 0.125 M ethanolamine, 0.063 M phosphate, pH 7.0) was 96.2 10^9counts and the “Light Yield” value (luciferase [1]; 0.25 M ethanolamine, 0.125 M phosphate, pH 7.0) was 115.4 10^9counts. For the same molecule, the “Light Yield” value (luciferase [1]; 0.5 M ethanolamine, 0.25 M phosphate, pH 7.0) was 124.8 10^9counts, the “Light Yield” value (luciferase [1]; 1.0 M ethanolamine, 0.5 M phosphate, pH 7.0) was 99.0 10^9counts and the “final concentration up to which light yield increases” value (luciferase [1]) was 0.5 M.

For `O=S(=O)(O)CCCN1CCN(CCO)CC1` [HEPPS (EPPS), 4-(2-hydroxyethyl)piperazine-1-propanesulfonic acid], the “pKa (D/° C.)” value [3] is given as −0.011 D/° C.

In the case of `O=S(=O)(O)CCCN1CCOCC1` [MOPS, 3-morpholinopropanesulfonic acid], the “pKa (D/° C.)” value [3] is listed as −0.011 D/° C.

In the case of `O=S(O)(O)=S` [Na2S2O3, sodium-thiosulfate], the “Light Yield” value (luciferase [1]; [10]) is reported as 147.7 10^9counts.

For `O=S([O-])S(=O)[O-].[Na+].[Na+]` [Na2S2O4, sodium-dithionite], the “Light Yield” value (luciferase [5]) was 128.4 10^9counts.

For `O=S([O-])[O-].[Na+].[Na+]` [Na2SO3, sodium-sulfite], the “Light Yield” value (luciferase [1]; [10]) was 136.8 10^9counts.

In the case of `O=S(=O)(O)CCCNC(CO)(CO)CO` [TAPS, N-[tris(hydroxymethyl)methyl]-3-aminopropanesulfonic acid], the “pKa (D/° C.)” value [3] is listed as “(0.018) D/° C”.

For `O=C(O)CCP(CCC(=O)O)CCC(=O)O` [TCEP, Tris(2-carboxyethyl) phosphine], the “Light Yield” value (luciferase [1]; [10]) was 122.1 10^9counts.

In the case of `O=C(O)CNC(CO)(CO)CO` [Tricine, N-[tris(hydroxymethyl)methyl]-glycine], the “pKa (D/° C.)” value [3] is listed as “(−0.021) D/° C”.

For `CC(C)N` [isopropylamine], the pKa [6] is listed as 10.82.

In the case of Triton™ X-100, the “greater light output over simple freeze-thaw lysis” value (luciferase [7]) is given as no more than 25 fold.

For tris(hydroxymethyl)aminomethane, the “Light Yield” value (luciferase [1]; 0.008 M Tris, 0.004 M phosphate, pH 7.0, 0-420 min) was 44.4 10^9counts, the “Light Yield” value (luciferase [1]; 0.016 M Tris, 0.008 M phosphate, pH 7.0, 0-420 min) was 52.9 10^9counts and the “Light Yield” value (luciferase [1]; 0.031 M Tris, 0.016 M phosphate, pH 7.0, 0-420 min) was 63.0 10^9counts. The “Light Yield” value (luciferase [1]; 0.063 M Tris, 0.031 M phosphate, pH 7.0, 0-420 min) was 80.4 10^9counts, the “Light Yield” value (luciferase [1]; 0.125 M Tris, 0.063 M phosphate, pH 7.0, 0-420 min) was 103.4 10^9counts and the “Light Yield” value (luciferase [1]; 0.25 M Tris, 0.125 M phosphate, pH 7.0, 0-420 min) was 126.8 10^9counts. The “Light Yield” value (luciferase [1]; 0.5 M Tris, 0.25 M phosphate, pH 7.0, 0-420 min) was 137.3 10^9counts, the “Light Yield” value (luciferase [1]; 1.0 M Tris, 0.5 M phosphate, pH 7.0, 0-420 min) was 123.8 10^9counts and the “final concentration up to which light yield increases” value (luciferase [1]) was 0.5 M. The “effect on total luminescence” value (luciferase [8]) was “inhibit total luminescence” and the “effect on total luminescence” value (luciferase [9]) was “enhances total luminescence”.
